Measured values: patent US11360080B2, “AhR-ROR-γt complex as a biomarker and therapeutic target for autoimmune disease and IL-17A-associated disease” (NATIONAL HEALTH RESEARCH INSTITUTES, priority 2018, dated 2022)
Structures can show the parent of a compound that is named as a salt.

Legend:
[1] = molecular target: T1, GLK kinase domain (Homo sapiens, UniProt Q8IVH8); assay: In vitro GLK kinase assay (ADP-GLO) with kinase-dead PKCθ (K409W) as substrate; format: biochemical; details: screening of 101,200 compounds
T1 construct: recombinant proteins of the GLK kinase-domain (1 μg) were incubated with recombinant proteins of kinase-dead PKCθ
T1 sequence (Q8IVH8 16-273 limits assumed): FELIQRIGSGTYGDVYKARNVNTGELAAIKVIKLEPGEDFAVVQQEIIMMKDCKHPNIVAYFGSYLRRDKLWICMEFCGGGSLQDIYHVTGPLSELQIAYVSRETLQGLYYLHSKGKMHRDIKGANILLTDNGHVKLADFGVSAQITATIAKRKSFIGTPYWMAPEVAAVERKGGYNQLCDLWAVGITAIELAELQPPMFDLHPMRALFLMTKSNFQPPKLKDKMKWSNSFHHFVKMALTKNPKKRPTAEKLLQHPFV
Experimental: (A) Luciferase activity of NF-κB-driven reporter assays in stable GLK-transfected CHO-K1 cells that were treated with or without the GLK inhibitor C1 (verteporfin) under the indicated concentration. The fold changes are presented relative to the value of vector control. (B) Recombinant proteins of GLK kinase domain plus recombinant proteins of GST-tagged kinase-dead PKCθ (K409W) were subjected to in vitro kinase assays in the presence or absence of the GLK inhibitor C1 (verteporfin). Means±SD of are shown. *, P value<0.05; **, P value<0.01 (two-tailed Student's t-test). (C) The AhR-RORγt complex was inhibited by the GLK inhibitor. Confocal microscopy of proximity ligation assays (PLA) for the interaction between AhR and either RORγt or phospho-RORγt (S489) in peripheral blood T cells treated with C1 (verteporfin) (5 μM) for 30 min. The T cells were freshly isolated from 4 SLE patients and 1 RA patients. C1 denotes verteporfin; C2 denotes alexidine dihydrochloride. (D) Quantification of the PLA signals of (C). (E) FRET assays of HEK293T cells co-transfected with CFP-AhR, YFP-RORγt, and IKKβ plasmids.
GLK kinase activity was determined by measuring the rate of ADP production in the in vitro kinase reaction using ADP-GLO™ Kinase Assay kit. For the kinase reaction, recombinant proteins of the GLK kinase-domain (1 μg) were incubated with recombinant proteins of kinase-dead PKCθ (K409W; 0.15 μg) plus ATP (0.1 mM) or myelin basic protein (MBP) plus ATP (0.1 mM) in kinase buffer (40 mM Tris-HCl, pH7.5.20 mM MgCl2, 0.1 mg/ml BSA, 10 mM DTT and 0.1 mM Na3VO4) for 30 min at room temperature.
Cell-based high-throughput screening was conducted against a representative library of 100,000 molecules at ˜10 μM. CHO-GLK-Luc cells expressing GLK and NF-κB-luciferase reporter were used. The reaction volume was 5 μl (500 cells) per well in 1,536-well plates. There was no positive control. This high-throughput screening campaign was successful with a determined Z′ factor of 0.57˜0.60. […]

[2] = test system: LLC/luc cells; assay: LLC/luc metastatic lung cancer mouse model; format: in vivo; details: C1 0.556 nmole/g, C2 0.085 nmole/g i.v. every 3 days for 30 days
Description: (A) The molecular docking of GLK kinase domain structure with C1 (verteporfin). A three-dimensional structure model depicts the binding of C1 to the predicted GLK kinase domain containing phosphorylated Ser-170. The putative binding affinity was −7.4 kcal/mol. (B) The molecular docking of GLK kinase domain structure with C2 (alexidine dihydrochloride). A three-dimensional structure model depicts the binding of C2 to the predicted GLK kinase domain containing phosphorylated Ser-170. The putative binding affinity was −7.0 kcal/mol. (C) Co-immunoprecipitation (co-IP) of Flag-tagged GLK and GFP-fusion GLK using lysates of HEK293T cells co-transfected with Flag-GLK and GFP-GLK plasmids. Cells were treated with C1 (verteporfin) or C2 (alexidine dihydrochloride). (D) Administration of the GLK inhibitor C1 (0.556 nmole/g) or C2 (0.085 nmole/g) every 3 days for 30 days in the LLC/luc metastatic lung cancer mouse model. (E) The luciferase activity in mice treated with C1 (verteporfin), C2 (alexidine dihydrochloride), or vehicle was detected by IVIS Spectrum. (F) Luminescent intensity of photons emitted from LLC/luc cells in the images in (e) was quantified. (G) Representative immunohistochemistry of H&E in lung tissues from mice treated with C1 (verteporfin), C2, or vehicle. Scale bar, 0.5 cm. (H) In situ PLA assays of the interaction between GLK and IQGAP1 (upper panel) or phosphorylated IQGAP1 Ser-480 (lower panel) in lung tissues from mice treated with C1 (verteporfin), C2 (alexidine dihydrochloride), or vehicle in the LLC/luc metastatic lung cancer mouse model. Original magnification, ×40. We studied whether GLK inhibitors also suppress cancer cell migration. […] Moreover, both C1 (verteporfin) and C2 (alexidine dihydrochloride) treatments suppressed tumor growth in the xenograft mouse model using TC-1 lung cancer cells (FIG. 15). To study whether GLK deficiency results in a reduction of lung cancer metastasis, we used a metastatic Lewis lung carcinoma (LLC) mouse model by tail vein injection of luciferase-expressing LLC (LLC/luc) cells. We identified two GLK inhibitors (verteporfin and alexidine dihydrochloride)) using cell-based assays and in vitro kinase assays. […] The dimerization of Flag-tagged GLK protein and GFP-GLK fusion protein was indeed blocked by the C1 (verteporfin) treatment (FIG. 16C). We treated the LLC/luc cells-containing mice with the GLK inhibitor C1 (verteporfin) or C2 (alexidine dihydrochloride) by intravenous injection every 3 days for 30 days (FIG. 16D). The luciferase activity of LLC/luc cells in the mice was detected by In Vivo Imaging System. The excised lungs were weighed and subjected to H&E staining. […] Inhibition of kinase activity of GLK (MAP4K3) or other MAP4Ks was determined by in vitro kinase assays using myelin basic protein (MBP) as a substrate. […]

Row | Structure (SMILES) | GLK kinase activity in vitro [1] | GLK kinase activity in vitro ([1]; listed as verteporfin) | cancer colony in lung (histology) [2] | luciferase activity of LLC/luc cells in the lung [2]
1 | C=Cc1c(C)c2cc3nc(cc4[nH]c(cc5nc(cc1[nH]2)C(C)=C5CCC(=O)O)c(CCC(=O)OC)c4C)[C@@]1(C)C3=CC=C(C(=O)OC)[C@H]1C(=O)OC [C1, verteporfin] | efficiently inhibited | most effective inhibitor | reduction | reduced
2 | CCCCC(CC)CNC(=N)NC(=N)NCCCCCCNC(=N)NC(=N)NCC(CC)CCCC (stereo not shown) [C2, alexidine dihydrochloride] | efficiently inhibited |  | reduction | reduced
